{
  "source": "patent US12195558B2",
  "about": "“Targeted delivery system and methods of use therefor” (SANFORD BURNHAM PREBYS MEDICAL DISCOVERY INSTITUTE, priority 2015, dated 2025)",
  "key": {"[1]": {"tested_on": "mitochondrial membranes", "settings": "significantly less than the concentration required to kill eukaryotic cells; cited from earlier work"}, "[2]": {"tested_on": "orthotopic MCF10CA1a breast tumor xenografts", "experiment": "Tumor homing and penetration of peptide-conjugated nanoworms (NWs)", "type": "in vivo, athymic nude mice", "description": "FIG. 12 is a fluorescent micrograph showing tumor homing of linear TT1-NWs. Tumor-bearing mice were intravenously injected with FAM-LinTT1-coated NWs (7.5 mg iron/kg) and allowed to circulate for 5 hours. The mice were perfused through the heart with PBS, and tumors and organs were collected and processed for fluorescence microscopy. The left panel is a representative confocal microscopy image from tumors in mice. […]\nFIG. 13 is a bar graph showing quantification of the homing of various peptide-coated NWs. […] Quantification of fluorescence was done with ImageJ software (available from the website of the United States National Institutes of Health). In addition to the tumors, NWs were detected in the liver and spleen, which non-specifically capture nanoparticles regardless of their peptide coating. […]\nFIG. 15 is a bar graph showing tumor accumulation of NWs coated with chimeric peptides consisting of a homing peptide and pro-apoptotic peptide. Quantification of NW fluorescence was done with ImageJ software. […]\nIn vivo peptide homing. […] After 5-6 hours of NW circulation the mice were euthanized by cardiac perfusion with PBS under anesthesia, and tumors and organs were dissected and analyzed for particle homing.\nImmunofluorescence. […] The primary antibody was detected with Alexa 594-labeled goat anti-rat secondary antibody (1:1000; Molecular Probes). […]"}, "[3]": {"target": "T1, p32 (Homo sapiens, UniProt Q07021)", "T1 construct": "made in house; host or cells: E. coli Rosetta-gami-2 (Novagen)", "T1 sequence (Q07021 74-282)": "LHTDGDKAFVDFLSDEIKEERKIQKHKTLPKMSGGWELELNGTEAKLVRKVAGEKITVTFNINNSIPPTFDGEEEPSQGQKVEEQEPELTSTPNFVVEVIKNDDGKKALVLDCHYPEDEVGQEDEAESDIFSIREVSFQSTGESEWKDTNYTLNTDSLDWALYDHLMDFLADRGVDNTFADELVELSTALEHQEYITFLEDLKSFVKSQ", "experiment": "Fluorescence polarization assay with synthetic peptides on p32", "type": "binding", "settings": "for inhibition of binding of labeled TT1 to P32 by unlabeled peptide: competition, fluorescence polarization", "description": "(§1) FIGS. 4A and 4B are plots showing a comparison of the binding of LyP-1 (SEQ ID NO: 7; diamonds) and TT1 (SEQ ID NO: 3; squares) to p32 in a fluorescence polarization assay. […] NRP-1 was used as a control protein.\nFIG. 5 is a plot showing that P32-TT1 (CKRGARSTC; SEQ ID NO: 3) and LyP-1 (SEQ ID NO: 7) peptides competed for binding to the P32 protein. […] Squares: p32-TT1; Diamonds: LyP-1; X: RPARPAR peptide (SEQ ID NO: 14).\n(§2) An exemplary RGXRS (SEQ ID NO: 4) pentapeptide motif-containing peptide with the sequence CKRGARSTC (SEQ ID NO: 3) was designated as the […] and used it for further studies. Mutating any amino acid in the consensus motif of TT1 abolished the phage binding to p32. This new peptide conferred about 15-fold stronger phage binding to immobilized p32 protein than did the canonical LyP-1 peptide."}, "[4]": {"target": "T1, p32", "experiment": "Binding of peptide-displaying T7 phage to p32-coated magnetic beads", "settings": "p32-coated magnetic beads", "description": "FIG. 10 is a bar graph showing that the p32 binding of the RGXR(S/T) motif (SEQ ID NOs: 4 and 5) in the exemplary TT1 peptide (SEQ ID NO: 3) was not dependent on the cyclic structure and compatible with flanking sequences. Phage clones displaying the indicated peptides were incubated in p32-coated magnetic microbeads. After washing to remove non-bound phage, specifically bound phage were quantified.\nMilligram quantities of recombinant His-tagged p32 protein were expressed in E. coli and coated onto Ni-NTA magnetic beads, and biopanning was performed using two T7 bacteriophage peptide libraries (cyclic Cx7C and linear X7 library).\nVariant peptide-encoding genomic DNA of phage was sequenced and analyzed for the presence of consensus motifs. After two rounds of selection, both linear and cyclic libraries converged to contain an RGXRS (SEQ ID NO: 4) pentapeptide motif (see FIG. 2B). The binding of RGXRS (SEQ ID NO: 4)-displaying phage to p32 was specific, as these phage bound to magnetic beads coated with p32 protein and not to beads coated with ligand-binding b1b2 domain of the cell and tissue penetration receptor NRP-1 or BSA (see FIG. 3).\nas §2"}, "[5]": {"tested_on": "orthotopic breast tumors", "settings": "systemically administered; cited from earlier work"}, "[6]": {"target": "NRP-1 (Homo sapiens, UniProt O14786)", "sequence (O14786 22-923)": "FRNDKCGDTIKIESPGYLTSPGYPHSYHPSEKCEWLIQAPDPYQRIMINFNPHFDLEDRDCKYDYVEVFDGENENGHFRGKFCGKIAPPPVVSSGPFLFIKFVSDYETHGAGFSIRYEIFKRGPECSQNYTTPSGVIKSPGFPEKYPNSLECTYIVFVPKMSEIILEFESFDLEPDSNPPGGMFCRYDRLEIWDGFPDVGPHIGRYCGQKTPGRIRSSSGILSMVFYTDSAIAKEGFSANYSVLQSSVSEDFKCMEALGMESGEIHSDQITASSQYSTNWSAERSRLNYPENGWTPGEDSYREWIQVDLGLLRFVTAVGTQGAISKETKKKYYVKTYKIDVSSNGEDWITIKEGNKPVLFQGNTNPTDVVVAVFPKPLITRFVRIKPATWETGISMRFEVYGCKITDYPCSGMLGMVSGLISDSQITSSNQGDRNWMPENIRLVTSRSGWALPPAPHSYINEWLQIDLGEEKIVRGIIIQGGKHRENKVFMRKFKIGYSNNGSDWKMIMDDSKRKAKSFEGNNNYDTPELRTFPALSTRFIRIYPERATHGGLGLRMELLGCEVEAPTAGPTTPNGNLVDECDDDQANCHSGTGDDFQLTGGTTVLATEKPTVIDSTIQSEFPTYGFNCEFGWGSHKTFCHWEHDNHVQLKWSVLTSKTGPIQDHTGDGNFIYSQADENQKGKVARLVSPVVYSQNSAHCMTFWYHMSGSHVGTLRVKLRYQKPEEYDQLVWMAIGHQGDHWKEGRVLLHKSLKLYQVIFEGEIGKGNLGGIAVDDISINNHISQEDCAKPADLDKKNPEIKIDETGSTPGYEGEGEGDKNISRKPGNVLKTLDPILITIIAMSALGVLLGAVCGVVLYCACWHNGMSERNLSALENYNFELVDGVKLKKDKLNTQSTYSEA", "experiment": "Fluorescence polarization assay on NRP-1 (control protein)", "type": "binding", "settings": "NRP-1 as control protein", "description": "as §1"}, "[7]": {"tested_on": "atherosclerotic plaques", "experiment": "Homing to atherosclerotic plaques in ApoE null mice on high-fat diet", "type": "in vivo", "settings": "100 mg FAM labeled peptide i.v., one hour", "description": "ApoE null mice that had been kept on a high-fat diet were intravenously injected with […] of the FAM labeled peptides. One hour later, the mice were perfused through the heart under anesthesia, and tissues were collected. The panels show accumulation of FAM labeled peptides visualized with UV excitation. The center two and right two panels show atherosclerotic aortas that were sectioned at the aortic root level and examined by confocal microscopy."}},
  "note": "Bridge positions count the residues as written; N and C are the ends. Ends that are not written are not given here.",
  "data": [
    {"substance": "KLAKLAKKLAKLAK (also: D-amino acids, positions not given here) [D(KLAKLAK)2]", "values": [
      {"measurement": "concentration inducing marked mitochondrial swelling", "setting": "[1]", "value": 10, "unit": "µM"}
    ]},
    {"substance": "AKRGARSTA [LinTT1]", "values": [
      {"measurement": "tumor homing of peptide-coated NWs (in words)", "setting": "[2]; 7.5 mg iron/kg i.v., 5 hours circulation", "value": "most effective peptide in the nanoparticle context"},
      {"measurement": "affinity for p32 (in words)", "setting": "[3]; method not stated at the place", "value": "low affinity for the receptor"},
      {"measurement": "phage binding to p32 (in words)", "setting": "[4]; listed as TT1 Peptide variant", "value": "retains the binding activity"},
      {"measurement": "phage binding to p32 (in words)", "setting": "[4]; listed as TT1 variant", "value": "retained the binding activity"}
    ]},
    {"substance": "CRGDKGPDC [iRGD]", "values": [
      {"measurement": "homing to and penetration of orthotopic breast tumors", "setting": "[5]", "value": "efficiently home to and penetrate orthotopic breast tumors in vivo"}
    ]},
    {"substance": "RPARPAR [reference compound]", "values": [
      {"measurement": "inhibition of binding of labeled TT1 to P32 by unlabeled peptide", "setting": "[3]", "value": "not"},
      {"measurement": "binding to NRP-1 in fluorescence polarization assay (in words)", "setting": "[6]", "value": "avidly bound to NRP-1"}
    ]},
    {"substance": "CGNKRTRGC (disulfide 1-9 (inferred)) [LyP-1, reference compound]", "values": [
      {"measurement": "tumor homing and extravascular penetration of homing peptide-D[KLAKLAK]2 NWs (in words)", "setting": "[2]; homing peptide-D[KLAKLAK]2 chimeric peptide on NWs", "value": "more effective than the CGKRK"},
      {"measurement": "homing to and penetration into plaque tissue", "setting": "[7]", "value": "seen inside plaques"},
      {"measurement": "inhibition of binding of labeled TT1 to P32 by unlabeled peptide", "setting": "[3]", "value": "could be inhibited"},
      {"measurement": "homing to and penetration of orthotopic breast tumors", "setting": "[5]", "value": "efficiently home to and penetrate orthotopic breast tumors in vivo"}
    ]}
  ]
}
